# Data: paper PMC7179450, “Primary Human Hepatocytes, But not HepG2 or Balb/c 3T3 Cells, Efficiently Metabolize Salinomycin and Are Resistant to Its Cytotoxicity” (Molecules, 2020)
# Read-outs that look alike come from different tables or passages of the source.
# Assays:
# [1] = tested on: primary human hepatocytes (PHH); assay: MTT assay, cytotoxicity in primary human hepatocytes; type: cell-based; conditions: Hepatocyte, mean ± SEM, n = 3, read-out: EC50 (effective concentration)
# Experimental: Cryopreserved PHH were purchased from the Primacyt GmbH (Schwerin, Germany). Two different lots were chosen based on CYP activity. The donor was a person. The post-thaw viability was 94.6% for lot HH160531 (used in two repetitions) and 85.0% for lot HH130805. The initial cell viability was determined with the trypan blue exclusion test. The cells were thawed and purified using the Plating and Thawing Kit (Primacyt GmbH). Purified hepatocytes were resuspended in Hepatocyte Plating Medium (Primacyt GmbH) and seeded on collagen-coated 96-well plates at a density of 9 × 10^5 cell/mL and incubated at 37 °C with 5% CO2. After 6 h of incubation, the medium was removed and the cells were washed with PBS. Then Human Hepatocyte Maintenance Medium (HHMM) (Primacyt GmbH) with the studied drugs was added to hepatocytes (100 µL/well). […]
# The concentration ranges of the drugs were chosen according to their solubility and their plasma level. […] The cytotoxicity was assessed after 24 and 48 h of exposure of cell lines or after 12 and 24 h exposure of PHH. […]
# (§1) The metabolic activity of living cells was assessed by measuring the activity of dehydrogenases. […] The plate was shaken for 15 min at room temperature and transferred to a microplate reader to measure the absorbance at 570 nm, using a blank as a reference. Cytotoxicity was expressed as a percentage of the negative control (0.1% or 0.2% DMSO).
# [2] = tested on: primary human hepatocytes (PHH); assay: TPC assay (total protein content) in primary human hepatocytes; type: cell-based; conditions: Hepatocyte, mean ± SEM, n = 3, read-out: EC50 (effective concentration)
# Experimental: Cryopreserved PHH were purchased from the Primacyt GmbH (Schwerin, Germany). Two different lots were chosen based on CYP activity. The donor was a person. The post-thaw viability was 94.6% for lot HH160531 (used in two repetitions) and 85.0% for lot HH130805. The initial cell viability was determined with the trypan blue exclusion test. The cells were thawed and purified using the Plating and Thawing Kit (Primacyt GmbH). Purified hepatocytes were resuspended in Hepatocyte Plating Medium (Primacyt GmbH) and seeded on collagen-coated 96-well plates at a density of 9 × 10^5 cell/mL and incubated at 37 °C with 5% CO2. After 6 h of incubation, the medium was removed and the cells were washed with PBS. Then Human Hepatocyte Maintenance Medium (HHMM) (Primacyt GmbH) with the studied drugs was added to hepatocytes (100 µL/well). The culture conditions were kept according to the manufacturer’s protocol.
# The concentration ranges of the drugs were chosen according to their solubility and their plasma level. Each drug was dissolved in DMSO. […] The cytotoxicity was assessed after 24 and 48 h of exposure of cell lines or after 12 and 24 h exposure of PHH. […]
# The assay was based on staining total cellular protein [14]. […] The absorbance was measured at 595 nm in a microplate reader using blank as a reference. Cytotoxicity was expressed as a percentage of the negative control (0.1% or 0.2% DMSO).
# [3] = tested on: HepG2 cells; assay: NRU assay in HepG2; type: cell-based, human; conditions: for EC50: Homo sapiens, read-out: EC50 (effective concentration)
# Experimental: (§2) The HepG2 cell line was purchased from the American Type Culture Collection (ATCC® HB-8065™). The cells were cultured in Minimum Essential Medium Eagle (MEME) (Sigma–Aldrich Co. (St. Louis, MO, USA)). Normal murine embryonic fibroblasts, Balb/c 3T3 clone A31 cell line (gift from Department of Swine Diseases of the National Veterinary Research Institute in Pulawy) was cultured in Dulbecco’s Modified Eagle’s Medium (DMEM) (Invitrogen Corporations (Paisley, UK)). The media were supplemented with 10% BCS (Balb/c 3T3), 10% FBS (HepG2), 1% L-glutamine, and 1% antibiotic solution. The cells were maintained in 75 cm^2 cell culture flasks in humidified incubator at 37 °C, in an atmosphere of 5% CO2. The medium was refreshed every two or three days and the cells were trypsinized by 0.25% trypsin–0.02% EDTA after reaching 70–80% confluence. The initial cell viability was determined with the trypan blue exclusion test. Single cell suspensions were prepared and adjusted to a density of 2 × 10^5 cell/mL (HepG2) and 1 × 10^5 cell/mL (Balb/c 3T3). The cell suspension was transferred to 96-well plates (100 µL/well) and incubated for 24 h before exposure to the studied drugs.
# (§3) The concentration ranges of the drugs were chosen according to their solubility and their plasma level. Each drug was dissolved in DMSO. The final concentration of DMSO was 0.1% or 0.2% in the medium for both samples and corresponding controls. […] All drug solutions in medium were freshly prepared and protected from light. SAL was tested in seven concentrations from 0.39 to 25 µg/mL. […] The cytotoxicity was assessed after 24 and 48 h of exposure of cell lines or after 12 and 24 h exposure of PHH. […]
# (§4) The assay, based on staining of living cells by neutral red (NR), was performed according to the protocol described by Borenfreund and Puerner. […] After 10 min of shaking, the absorbance of the dissolved NR was measured at 540 nm using a blank as a reference. Cytotoxicity was expressed as a percentage of the negative control (0.1% or 0.2% DMSO).
# [4] = tested on: Balb/c 3T3 cells; assay: NRU assay in Balb/c 3T3; type: cell-based, mouse; conditions: for EC50: Mus musculus, read-out: EC50 (effective concentration)
# Experimental: as §2, §3, §4
# [5] = tested on: PHH; assay: Cytotoxicity battery (MTT, NRU, TPC, LDH) in PHH; type: cell-based, human; conditions: well tolerated at lower concentrations
# Experimental: as §3, with “µg/mL. Tiamulin was added in two concentrations (1 and 10 µg/mL) or just one concentration (1 µg/mL) to cell lines or human hepatocytes, respectively. Prednisolone was tested in one concentration—1 µg/mL independent of the type of cells.” for “µg/mL.”
# as §1
# The assay, based on staining of living cells by neutral red (NR), was performed according to the protocol described by Borenfreund and Puerner. […] After 10 min of shaking, the absorbance of the dissolved NR was measured at 540 nm using a blank as a reference. […]
# [6] = tested on: dogs; conditions: chronic toxicity study in dogs; cited from earlier work
# [7] = tested on: turkeys; conditions: cited from earlier work
# [8] = mouse, in vivo; cited from earlier work
# [9] = rat, in vivo; cited from earlier work
# [10] = in vivo; cited from earlier work
smiles,measurement,setting,value
"CC[C@@H](C(=O)[C@@H](C)[C@@H](O)[C@H](C)[C@@H]1O[C@@H]([C@@H](CC)C(=O)O)CC[C@@H]1C)[C@H]1O[C@]2(C=C[C@@H](O)[C@]3(CC[C@@](C)([C@H]4CC[C@](O)(CC)[C@H](C)O4)O3)O2)[C@H](C)C[C@@H]1C [SAL, salinomycin]",EC50,[1]; 12 h exposure,> 25 µg/mL
same,EC50,[1]; 24 h exposure,> 25 µg/mL
same,EC50,[2]; 12 h exposure,> 25 µg/mL
same,EC50,[2]; 24 h exposure,> 25 µg/mL
same,lowest concentration with significant effect on lysosomal activity,"[3]; HepG2, 24 h, SAL alone or in both drug combinations (Figure S2)",0.39 µg/mL
same,EC50,"[3]; HepG2, 24 h",0.6 ± 0.2 µg/mL
same,EC50,"[3]; HepG2, 48 h",< 0.39 µg/mL
same,lowest concentration with significant effect on lysosomal activity,"[4]; Balb/c 3T3, 24 h, SAL alone or in both drug combinations (Figure S3)",0.39 µg/mL
same,EC50,"[4]; BALB/c3T3, 24 h",0.6 ± 0.2 µg/mL
same,EC50,"[4]; BALB/c3T3, 48 h",< 0.39 µg/mL
same,concentrations exerting toxic effects,[5],> 10000 ng/mL
same,NOAEL (No Observed Adverse Effect Level),[6],500 µg/kg b.w.
same,LD50,[7],0.6 mg/kg b.w.
same,"unchanged SAL in excreta, share of administered dose",[8],2%
same,"unchanged SAL in excreta, share of administered dose",[9],2%
same,"unchanged SAL in excreta, share of administered dose",[10],2%
